Residues, ends and D or L forms follow the SMILES beside them. *: point of attachment. Cbz = O=C(OCc1ccccc1)*; CH2F = FC*
Experiments:
[1] = target: T1, Gasdermin-D (Homo sapiens) (UniProt P57764); assay: Inhibition of human GSDMD expressed in HEK293 cells assessed as inhibition of GSDMD -induced lethality; assay type: cell-based
T1 sequence (whole entry): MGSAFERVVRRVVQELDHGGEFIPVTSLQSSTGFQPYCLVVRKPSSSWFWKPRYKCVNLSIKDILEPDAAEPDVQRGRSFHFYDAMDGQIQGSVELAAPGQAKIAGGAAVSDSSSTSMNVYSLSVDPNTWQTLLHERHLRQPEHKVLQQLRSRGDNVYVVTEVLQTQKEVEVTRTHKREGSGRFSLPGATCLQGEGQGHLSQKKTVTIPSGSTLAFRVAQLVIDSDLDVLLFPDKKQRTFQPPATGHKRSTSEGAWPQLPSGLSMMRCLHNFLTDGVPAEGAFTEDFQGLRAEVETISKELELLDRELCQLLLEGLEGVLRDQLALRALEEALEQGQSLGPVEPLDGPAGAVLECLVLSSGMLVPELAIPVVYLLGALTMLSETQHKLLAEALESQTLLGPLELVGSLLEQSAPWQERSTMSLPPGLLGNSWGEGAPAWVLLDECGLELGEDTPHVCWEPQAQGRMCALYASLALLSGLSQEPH

[2] = target: T2, Gasdermin-D (Mus musculus) (UniProt Q9D8T2); assay: Inhibition of mouse GSDMD expressed in HEK293 cells assessed as inhibition of GSDMD -induced lethality; assay type: cell-based
T2 sequence (whole entry): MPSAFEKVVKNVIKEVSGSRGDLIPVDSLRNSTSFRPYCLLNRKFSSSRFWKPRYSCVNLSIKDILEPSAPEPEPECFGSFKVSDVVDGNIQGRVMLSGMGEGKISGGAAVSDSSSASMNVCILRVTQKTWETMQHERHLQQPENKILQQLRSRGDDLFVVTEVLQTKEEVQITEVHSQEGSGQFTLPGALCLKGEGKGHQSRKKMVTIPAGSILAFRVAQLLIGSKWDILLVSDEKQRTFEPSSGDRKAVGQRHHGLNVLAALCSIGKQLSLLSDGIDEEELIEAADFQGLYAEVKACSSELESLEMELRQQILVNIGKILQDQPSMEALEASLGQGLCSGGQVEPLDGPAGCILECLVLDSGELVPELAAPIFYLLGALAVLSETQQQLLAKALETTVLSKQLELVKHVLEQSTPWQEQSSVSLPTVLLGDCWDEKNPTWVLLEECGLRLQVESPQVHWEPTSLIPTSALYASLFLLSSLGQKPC

[3] = target: T2, Gasdermin-D (Mus musculus); assay: Inhibition of GSDMD in LPS-induced mouse monocyte/macrophages assessed as inhibition of pyroptosis by fluorogenic liposome leakage assay; conditions: concentration not given here
[4] = target: T1, Gasdermin-D (Homo sapiens); assay: Inhibition of GSDMD in LPS-induced human monocyte/macrophages assessed as inhibition of pyroptosis by fluorogenic liposome leakage assay; conditions: concentration not given here

| inhibition [3] | inhibition [4] | SMILES | INH [1] | INH [2] |
| --- | --- | --- | --- | --- |
| – | – | COc1ccccc1-c1cc2n(n1)Cc1ccc(NC(C)=O)cc1OC2 | 1 µM | 5 µM |
| > 50% | > 50% | CC(C)[C@H](NC(=O)OCc1ccccc1)C(=O)N[C@@H](C)C(=O)N[C@@H](CC(=O)O)C(=O)CF (Cbz-Val-Ala-Asp-CH2F) | – | – |
| > 50% | > 50% | Cc1ccc(S(=O)(=O)/C=C/C#N)cc1 | – | – |

Source: ChEMBL document CHEMBL4321782, “Gasdermin D (GSDMD) as a new target for the treatment of infection” (Medchemcomm, 2019)
